Experimental data taken from patent publication US6818649B2, “Chromenylmethyl pyrimidinediamines as antibacterial agents” (Basilea Pharmaceutica AG, priority 2000, dated 2004).
≈ marks a conversion by molar mass, not a printed value.

Legend:
[1] = test system: Staphylococcus aureus 101, MRSA and Trimethoprim-resistant; clinical isolate; test: MIC against Staphylococcus aureus 101; format: cell-based; details: read-out: MIC Sa101
Description: (§1) The following Table contains inhibitory concentrations determined in the above test for representative members of the class of compound defined by formula I. The following microorganisms were tested: […]
Col. 2: MIC Sa101; μg/ml (Staphylococcus aureus 101, MRSA^*)— and Trimethoprim-resistant; clinical isolate, stored at −80° C.)
^*) MRSA=Methicillin Resistant Staphylococcus Aureus

[2] = test system: Streptococcus pneumoniae 1/1, Trimethoprim- and Penicillin-resistant, Serotype 6; clinical isolate; test: MIC against Streptococcus pneumoniae 1/1; format: cell-based; details: read-out: MIC Spn1/1
Description: as §1
Col. 1: MIC Spn1/1; μg/ml (Streptococcus pneumoniae 1/1, Trimethoprim- and Penicillin-resistant, Serotype 6; clinical isolate, stored at −80° C.)
Lit.: H. Locher et al., Can. J. Infect. Dis.6: Suppl. C, p 469C.

[3] = molecular target: purified DHFR of the strain 157/4696 (highly trimethoprim-resistant; clinical isolate) of Staphylococcus aureus (Staphylococcus aureus, UniProt P13955); test: biochemical
Description: The inhibition of the enzyme was taken as a measurement for the antibacterial activity.

[4] = molecular target: T1, purified DHFR of strain Sp1/1 of Streptococcus pneumoniae (Streptococcus pneumoniae, UniProt Q54801); details: read-out: DHFR Spn1/1 (IC50); purified DHFR of S. pneumoniae strain Spn1/1; IC50 determined graphically
T1 sequence (Q54801 1-168): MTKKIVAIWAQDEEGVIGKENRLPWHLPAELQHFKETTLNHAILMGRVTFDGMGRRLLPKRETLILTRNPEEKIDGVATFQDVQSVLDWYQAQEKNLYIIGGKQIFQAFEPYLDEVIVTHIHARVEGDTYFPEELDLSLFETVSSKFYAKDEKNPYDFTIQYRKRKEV
Description: 3: DHFR Spn1/1; μM—the IC50-values in μM against the purified DHFR of the above strain Sp1/1 of Streptococcus pneumoniae.

CCOc1cc(Cc2cnc(N)nc2N)cc2c1OC(C)(C)C=C2[Si](C)(C)C
melting point: 189 to 190 °C

CCOc1cc(Cc2cnc(N)nc2N)cc(OCC)c1-n1cccc1 [Epiroprim, reference compound]
MIC [1]: 16 µg/mL (≈ 45.3 µM)
MIC [2]: 4 µg/mL (≈ 11.3 µM)
IC50 [3]: 2000 nM

COc1cc(Cc2cnc(N)nc2N)cc2c1OC(C)(C)C=C2Br [Example 2, 5-(4-Bromo-8-methoxy-2,2-dimethyl-2H-chromen-6-ylmethyl) -pyrimidine-2,4-diamine]
MIC [1]: 1 µg/mL (≈ 2.56 µM)
MIC [2]: 4 µg/mL (≈ 10.2 µM)
IC50 [3]: 150 nM
IC50 [4]: 52 nM

CCC1=CC(C)(C)Oc2c(OC)cc(Cc3cnc(N)nc3N)cc21 [Example 3, 5-(4-Ethyl-8-methoxy-2,2-dimethyl-2H-chromen-6-ylmethyl)-pyrimidine-2,4-diamine]
melting point: 256 to 257 °C

COc1cc(Cc2cnc(N)nc2N)cc2c1OC(C)(C)C=C2SC [Example 4, 5-(8-Methoxy-2,2-dimethyl-4-methylsulfanyl-2H-chromen-6-ylmethyl)-pyrimidine-2,4-diamine]
MIC [1]: 2 µg/mL (≈ 5.58 µM)
MIC [2]: 4 µg/mL (≈ 11.2 µM)
IC50 [3]: 88 nM
IC50 [4]: 78 nM

COc1cc(Cc2cnc(N)nc2N)cc2c1OC(C)(C)C=C2CO [Example 5, [6-(2,4-Diamino-pyrimidin-5-ylmethyl)-8-methoxy-2,2-dimethyl-2H-chromen-4-yl]-methanol]
melting point: 239 to 240 °C

COc1cc(Cc2cnc(N)nc2N)cc2c1OC(C)(C)C=C2Cl [Example 6, 5-(4-Chloro-8-methoxy-2,2-dimethyl-2H-chromen-6-ylmethyl)-pyrimidine-2,4-diamine]
MIC [1]: 1 µg/mL (≈ 2.88 µM)
melting point: 221 to 222 °C
MIC [2]: 4 µg/mL (≈ 11.5 µM)
IC50 [3]: 380 nM
IC50 [4]: 110 nM

CCOc1cc(Cc2cnc(N)nc2N)cc2c1OC(C)(C)C=C2Br [Example 7, 5-(4-Bromo-8-ethoxy-2,2-dimethyl-2H-chromen-6-ylmethyl)-pyrimidine-2,4-diamine]
MIC [1]: 0.5 µg/mL (≈ 1.23 µM)
MIC [2]: 0.5 µg/mL (≈ 1.23 µM)
IC50 [3]: 110 nM
IC50 [4]: 0.33 nM

CCOc1cc(Cc2cnc(N)nc2N)cc2c1OC(C)(C)C=C2CO [Example 13, [6-(2,4-Diamino-pyrimidin-5-ylmethyl)-8-ethoxy-2,2-dimethyl-2H-chromen-4-yl]-methanol]
melting point: 187 to 189 °C

CCOc1cc(Cc2cnc(N)nc2N)cc2c1OC(C)(C)C=C2C#CC(C)O (centres unmarked) [Example 15, 4-[6-(2,4-Diamino-pyrimidin-5-ylmethyl)-8-ethoxy-2,2-dimethyl-2H-chromen-4-yl]-but-3-yn-2-ol]
melting point: 218 to 219 °C

CCOc1cc(Cc2cnc(N)nc2N)cc2c1OC(C)(C)C=C2 [Example 19, 5-(8-Ethoxy-2,2-dimethyl-2H-chromen-6-ylmethyl)-pyrimidine-2,4-diamine]
melting point: 184 to 186 °C

COc1cc(Cc2cnc(N)nc2N)cc2c1OC1(C=C2Br)CCOCC1 [Example 21, 5-[(4-Bromo-2′,3′,5′,6′-tetrahydro-8-methoxyspiro[2H-1-benzopyran-2,4′-[4H]pyran]-6-yl)-methyl]-2,4-pyrimidinediamine]
MIC [1]: 1 µg/mL (≈ 2.31 µM)
MIC [2]: 4 µg/mL (≈ 9.23 µM)
IC50 [3]: 150 nM
IC50 [4]: 52 nM

COc1cc(Cc2cnc(N)nc2N)cc2c1OC1(C=C2)CCCCC1 [Example 31, 5-[(8-Methoxyspiro[2H-1-benzopyran-2,1′-cyclohexan]-6-yl)methyl]-2,4-pyrimidine-diamine]
melting point: 181 to 182 °C

COc1cc(Cc2cnc(N)nc2N)cc2c1OC(C)(C)C=C2c1ccc(F)cc1 [Example 32, 5-[4-(4-Fluoro-phenyl)-8-methoxy-2,2-dimethyl-2H-chromen-6-ylmethyl]-pyrimidine-2,4-diamine]
MIC [1]: > 8 µg/mL
MIC [2]: > 8 µg/mL
IC50 [3]: 80 nM
IC50 [4]: 190 nM

COc1cc(Cc2cnc(N)nc2N)cc2c1OC(C)(C)C=C2c1cccc(F)c1 [Example 33, 5-[4-(3-Fluoro-phenyl)-8-methoxy-2,2-dimethyl-2H-chromen-6-ylmethyl]-pyrimidine-2,4-diamine]
melting point: 267 °C (dec.)

CCOc1cc(Cc2cnc(N)nc2N)cc2c1OC(C)(C)C=C2c1cccc(F)c1 [Example 34, 5-[8-Ethoxy-4-(3-fluoro-phenyl)-2,2-dimethyl-2H-chromen-6-ylmethyl]-pyrimidine-2,4-diamine]
melting point: 185 to 186 °C

CCOc1cc(Cc2cnc(N)nc2N)cc2c1OC(C)(C)C=C2c1ccc(F)cc1 [Example 35, 5-[8-Ethoxy-4-(4-fluoro-phenyl)-2,2-dimethyl-2H-chromen-6-ylmethyl]-pyrimidine-2,4-diamine]
melting point: 204 to 205 °C (dec.)

CCOc1cc(Cc2cnc(N)nc2N)cc2c1OC(C)(C)C=C2c1cccs1 [Example 36, 5-(8-Ethoxy-2,2-dimethyl-4-thiophen-2-yl-2H-chromen-6-ylmethyl)-pyrimidine-2,4-diamine]
melting point: 213 to 214 °C (dec.)

CCOc1cc(Cc2cnc(N)nc2N)cc2c1OC(C)(C)C=C2c1ccsc1 [Example 37, 5-(8-Ethoxy-2,2-dimethyl-4-thiophen-3-yl-2H-chromen-6-ylmethyl)-pyrimidine-2,4-diamine]
melting point: 217 °C (dec.)

COc1cc(Cc2cnc(N)nc2N)cc2c1OC(C)(C)C=C2c1ccccc1 [Example 42, 5-(8-Methoxy-2,2-dimethyl-4-phenyl-2H-chromen-6-ylmethyl) -pyrimidine-2,4-diamine]
melting point: > 260 °C

CCOc1cc(Cc2cnc(N)nc2N)cc2c1OC(C)(C)C=C2C(C)(C)O [Example 43, 2-[6-(2,4-Diamino-pyrimidin-5-ylmethyl)-8-ethoxy-2,2-dimethyl-2H-chromen-4-yl]-propan-2-ol]
melting point: 209 to 210 °C

CCOc1cc(Cc2cnc(N)nc2N)cc2c1OC(C)(C)C=C2C(C)(O)CC (centres unmarked) [Example 44, 2-[6-(2,4-Diamino-pyrimidin-5-ylmethyl)-8-ethoxy-2,2-dimethyl-2H-chromen-4-yl]-butan-2-ol]
melting point: 127 to 128 °C

C=C(C)C1=CC(C)(C)Oc2c(OCC)cc(Cc3cnc(N)nc3N)cc21 [Example 45, 5-(8-Ethoxy-4-isopropenyl-2,2-dimethyl-2H-chromen-6-ylmethyl)-pyrimidine-2,4-diamine]
melting point: 188 to 189 °C

COc1cc(Cc2cnc(N)nc2N)cc2c1OC(C)(C)C=C2C#CCO [Example 46, 3-[6-(2,4-Diamino-pyrimidin-5-ylmethyl)-8-methoxy-2,2-dimethyl-2H-chromen-4-yl]-prop-2-yn-1-ol]
melting point: 236 to 237 °C

CCOc1cc(Cc2cnc(N)nc2N)cc2c1OC(C)(C)C=C2c1ccncc1 [Example 47, 5-(8-Ethoxy-2,2-dimethyl-4-pyridin-4-yl-2H-chromen-6-ylmethyl)-pyrimidine-2,4-diamine]
melting point: 223 to 226 °C

CCOc1cc(Cc2cnc(N)nc2N)cc2c1OC(C)(C)C=C2c1ccc(OC)c(OC)c1 [Example 48, 5-[4-(3,4-Dimethoxy-phenyl)-8-ethoxy-2,2-dimethyl-2H-chromen-6-ylmethyl]-pyrimidine-2,4-diamine]
melting point: 191 to 192 °C

CCOc1cc(Cc2cnc(N)nc2N)cc2c1OC(C)(C)C=C2c1cccc(NC(C)=O)c1 [Example 49, N-{3-[6-(2,4-Diamino-pyrimidin-5-ylmethyl)-8-ethoxy-2,2-dimethyl-2H-chromen-4-yl]-phenyl}-acetamide]
melting point: 145 °C (dec.)

CCOc1cc(Cc2cnc(N)nc2N)cc2c1OC(C)(C)C=C2c1cccnc1 [Example 50, 5-(8-Ethoxy-2,2-dimethyl-4-pyridin-3-yl-2H-chromen-6-ylmethyl) -pyrimidine-2,4-diamine]
melting point: 145 °C (dec.)

COc1cc(Cc2cnc(N)nc2N)cc2c1OC(C)(C)C=C2c1cccs1 [Example 51, 5-(8-Methoxy-2,2-dimethyl-4-thiophen-2-yl-2H-chromen-6-ylmethyl)-pyrimidine-2,4-diamine]
melting point: > 260 °C

CCOc1ccc(C2=CC(C)(C)Oc3c(OCC)cc(Cc4cnc(N)nc4N)cc32)cc1 [Example 52, 5-[8-Ethoxy-4-(4-ethoxy-phenyl)-2,2-dimethyl-2H-chromen-6-ylmethyl]-pyrimidine-2,4-diamine]
melting point: 186 to 188 °C

COc1cc(Cc2cnc(N)nc2N)cc2c1OC(C)(C)C=C2c1cccc([N+](=O)[O-])c1 [Example 53, 5-[8-Methoxy-2,2-dimethyl-4-(3-nitro-phenyl)-2H-chromen-6-ylmethyl]-pyrimidine-2,4-diamine]
melting point: 253 to 254 °C

CCOc1cc(Cc2cnc(N)nc2N)cc2c1OC(C)(C)C=C2c1cccc(N)c1 [Example 56, 5-[4-(3-Amino-phenyl)-8-ethoxy-2,2-dimethyl-2H-chromen-6-ylmethyl]-pyrimidine-2,4-diamine]
melting point: 196 to 198 °C (dec.)

CCOc1cc(Cc2cnc(N)nc2N)cc2c1OC(C)(C)C=C2Cl [Example 59, 5-(4-Chloro-8-ethoxy-2,2-dimethyl-2H-chromen-6-ylmethyl)-pyrimidine-2,4-diamine]
melting point: 197 to 199 °C

COc1cc(Cc2cnc(N)nc2N)cc(OC)c1OC [Trimethoprim, reference compound]
MIC [1]: 32 µg/mL (≈ 110 µM)
MIC [2]: > 32 µg/mL
